Laboratory results from patent US4710497A, “Method for percutaneously administering physiologically active agents” (Nitto Electric Industrial Co., Ltd., priority 1985, dated 1987).
Like-named read-outs stand apart in the source and are kept apart here.

Tests used:
[1] = remark: listed apart in the source
From the text: Rat full thickness skins were used in the following two types of diffusion cell methods.
The skin was excised from the shaved abdominal site of deceased male albino rats weighing 250~300 g, and washed with normal saline solution after the subcutaneous fat was carefully removed with scissors.
Probl. Dermatol., Vol. 7, p. […] The rat skin was mounted horizontally in a diffusion cell apparatus; the exposed area of the skin approximated 0.7 cm^2.
The active agent/PEAC solution of known concentration was added to the upper compartment of the cell, which was exposed to the epithelial side of the skin and a normal saline solution was placed in the lower compartment.
The penetration rate was studied in a thermostated bath at 30° C.
(§1) In all instances the in vitro diffusion cell technique or the in vivo rhesus monkey test earlier described were used. In all instances analysis was by conventional HPLC (high pressure liquid chromatography). Details and citations are given for illustrative techniques.
Detection was in a conventional manner via HPLC using a mobile phase of 70% A (0.5 acetic acid (v/v) with 1.0 g/l sodium pentane sulfonate) and 30% B (90% acetonitrile and 10% H2 O (v/v) with 1.0 g/l sodium pentane sulfonate); the columnn was ASI C18 300×3.9 mm and the flow rate was 2 ml/min by UV at 267 nm.

[2] = Pharmacological (behavioral) signs after percutaneous diazepam in animal models, e.g. rhesus monkey; type: in vivo; conditions: percutaneous administration, blood level of approximately 100 ng/ml
in vivo = conditions: rhesus monkey, topical or ocular, In Vivo - Monkey Plasma, 200 mg on 49 cm^2, 25% ethyl laurate in N-methyl pyrrolidone
Experimental: Male rhesus monkeys weighing 10-14 Kg each were used as the subject. An appropriate area of the monkey's chest was shaved 24 hours before drug application.
Drug formulations comprising the PEAC were applied to a certain area of the chest as indicated in each example. The monkey was restrained in a chair to prevent it from touching its chest.
Blood samples were taken at appropriate intervals after the application. The heparinized blood was centrifuged, and the plasma was removed and stored at -20° C. until analyzed. […]
To this solution was added 120 mg of Klucel® (cross-linked hydroxypropylcellulose type HF, Hercules Inc.) and the same stirred thoroughly to obtain a uniform gel.
1.0 ml of the gel was applied to 49 cm^2 of the chest area of the monkey; the applied area was left open to the air for the duration of the experiment.
as §1
To this solution was added 120 mg of hydroxypropylcellulose (Klucel® HF). […]

[3] = Comparative Composition B: active agent 3 g in 97 g dimethyl propionamide
[4] = Comparative Composition C: active agent 3 g in 97 g acetone, acetone evaporated off
[5] = Composition A: active agent 3 g in 97 g of 25 volume % isopropyl myristate in dimethyl propionamide
[6] = 2 hrs, I: 25 mg drug + 25% isopropyl myristate in N-methyl pyrrolidone
[7] = 2 hrs, II: 25 mg drug + 25% isopropyl myristate in N-methyl piperidone
[8] = 2 hrs, III: 25 mg drug + 25% isopropyl myristate in N-methyl caprolactam
[9] = 2 hrs, IV: 25 mg drug + 25% ethyl laurate in N-methyl pyrrolidone
[10] = 4 hrs, I: 25 mg drug + 25% isopropyl myristate in N-methyl pyrrolidone
[11] = 4 hrs, II: 25 mg drug + 25% isopropyl myristate in N-methyl piperidone
[12] = 4 hrs, III: 25 mg drug + 25% isopropyl myristate in N-methyl caprolactam
[13] = 4 hrs, IV: 25 mg drug + 25% ethyl laurate in N-methyl pyrrolidone
[14] = 6 hrs, I: 25 mg drug + 25% isopropyl myristate in N-methyl pyrrolidone
[15] = 6 hrs, II: 25 mg drug + 25% isopropyl myristate in N-methyl piperidone
[16] = 6 hrs, III: 25 mg drug + 25% isopropyl myristate in N-methyl caprolactam
[17] = 6 hrs, IV: 25 mg drug + 25% ethyl laurate in N-methyl pyrrolidone
[18] = 8 hrs, I: 25 mg drug + 25% isopropyl myristate in N-methyl pyrrolidone
[19] = 8 hrs, II: 25 mg drug + 25% isopropyl myristate in N-methyl piperidone
[20] = 8 hrs, III: 25 mg drug + 25% isopropyl myristate in N-methyl caprolactam
[21] = 8 hrs, IV: 25 mg drug + 25% ethyl laurate in N-methyl pyrrolidone

Compound | flux [3] | flux [4] | flux [5] | flux [1, 6] | flux [1, 7] | flux [1, 8] | flux [1, 9] | flux [1, 10] | flux [1, 11] | flux [1, 12] | flux [1, 13] | flux [1, 14] | flux [1, 15] | flux [1, 16] | flux [1, 17] | flux [1, 18] | flux [1, 19] | flux [1, 20] | flux [1, 21] | other results
O=C(O)c1ccccc1Nc1cccc(C(F)(F)F)c1 [flufenamic acid, N-(3'-trifluoro-methylphenyl)-anthranilic acid] | 311 μg/cm^2 /24 hrs | 26 μg/cm^2 /24 hrs | 598 μg/cm^2 /24 hrs | – | – | – | – | – | – | – | – | – | – | – | – | – | – | – | – | –
COC(=O)C1=C(C)NC(C)=C(C(=O)OC)C1c1ccccc1[N+](=O)[O-] [Nifedipine] | – | – | – | – | – | – | – | – | – | – | – | – | – | – | – | – | – | – | – | flux ([1]; 2 hrs, V (control): 25 mg drug in 1 ml N-methyl pyrrolidone): < 2 μg/cm^2 /hr; flux ([1]; 4 hrs, V (control): 25 mg drug in 1 ml N-methyl pyrrolidone): 2.7 μg/cm^2 /hr; flux ([1]; 6 hrs, V (control): 25 mg drug in 1 ml N-methyl pyrrolidone): 8.1 μg/cm^2 /hr; flux ([1]; 8 hrs, V (control): 25 mg drug in 1 ml N-methyl pyrrolidone): 3.9 μg/cm^2 /hr
CN1C(=O)CN=C(c2ccccc2)c2cc(Cl)ccc21 [Diazepam, 7-Chloro-1,3-dihydro-1-methyl-5-phenyl-2H-1,4-benzodiazepine-2-one] | – | – | – | – | – | – | – | – | – | – | – | – | – | – | – | – | – | – | – | pharmacological (behavioral) signs [2]: produces pharmacological (behavioral) signs of therapeutic effectiveness
CC(C)Cc1ccc(C(C)C(=O)O)cc1 (stereo not drawn) [Ibuprofen, p-isobutylhydratropic acid] | 835 μg/cm^2 /24 hrs | 242 μg/cm^2 /24 hrs | 1085 μg/cm^2 /24 hrs | 154.0 μg/cm^2 /hr | 142.0 μg/cm^2 /hr | 33.3 μg/cm^2 /hr | 192.8 μg/cm^2 /hr | 95.6 μg/cm^2 /hr | 79.2 μg/cm^2 /hr | 90.7 μg/cm^2 /hr | 93.0 μg/cm^2 /hr | 53.9 μg/cm^2 /hr | 46.1 μg/cm^2 /hr | 76.4 μg/cm^2 /hr | 47.5 μg/cm^2 /hr | 49.6 μg/cm^2 /hr | 40.4 μg/cm^2 /hr | 63.2 μg/cm^2 /hr | 40.0 μg/cm^2 /hr | –
COc1ccc2c(c1)c(CC(=O)O)c(C)n2C(=O)c1ccc(Cl)cc1 [Indomethacin, 1-(p-chlorobenzoyl)-5-methoxy-2-methylindole-3-acetic acid] | 150 μg/cm^2 /24 hrs | 30 μg/cm^2 /24 hrs | 394 μg/cm^2 /24 hrs | 65.1 μg/cm^2 /hr | 55.7 μg/cm^2 /hr | 11.3 μg/cm^2 /hr | 89.5 μg/cm^2 /hr | 39.0 μg/cm^2 /hr | 49.3 μg/cm^2 /hr | 56.8 μg/cm^2 /hr | 63.7 μg/cm^2 /hr | 21.5 μg/cm^2 /hr | 29.3 μg/cm^2 /hr | 41.3 μg/cm^2 /hr | 23.0 μg/cm^2 /hr | 13.2 μg/cm^2 /hr | 15.1 μg/cm^2 /hr | 21.8 μg/cm^2 /hr | 13.9 μg/cm^2 /hr | concentration at 1 h (in vivo; 1 hour): 370 ng/mL; concentration at 2 h (in vivo; 2 hours): 505 ng/mL; concentration at 3 h (in vivo; 3 hours): 420 ng/mL; concentration at 5 h (in vivo; 5 hours as printed): 110 ng/mL; concentration at 5 h (in vivo; 5 hours): 225 ng/mL
